Measurements from ChEMBL document CHEMBL1130678, “Thio-sugars. IV: Design and synthesis of S-linked fucoside analogs as a new class of alpha-L-fucosidase inhibitors” (Bioorg Med Chem Lett, 1998).

Target: T1, Tissue alpha-L-fucosidase (Homo sapiens, UniProt P04066)
T1 sequence (P04066 whole entry): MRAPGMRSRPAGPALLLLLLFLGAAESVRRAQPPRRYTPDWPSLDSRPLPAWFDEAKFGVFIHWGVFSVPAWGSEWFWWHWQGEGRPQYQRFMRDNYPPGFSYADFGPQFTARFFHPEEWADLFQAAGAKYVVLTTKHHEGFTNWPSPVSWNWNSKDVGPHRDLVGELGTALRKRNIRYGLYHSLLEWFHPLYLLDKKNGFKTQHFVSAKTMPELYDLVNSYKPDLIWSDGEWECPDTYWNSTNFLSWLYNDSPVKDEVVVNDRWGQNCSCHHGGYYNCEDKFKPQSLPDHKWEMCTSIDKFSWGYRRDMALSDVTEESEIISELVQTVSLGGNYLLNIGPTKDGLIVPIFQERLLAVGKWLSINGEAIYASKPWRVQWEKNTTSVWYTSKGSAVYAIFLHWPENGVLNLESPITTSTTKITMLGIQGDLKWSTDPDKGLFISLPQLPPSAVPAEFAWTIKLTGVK
Assay: Inhibitory activity against alpha-L-fucosidase in human placenta at PH of 6.5; Mixed Inhibition type

- Ki: 3.9 µM
Structure (SMILES): CC(=O)NCSC1OC(C)C(O)C(O)C1O (stereo unspecified)
